Experimental data from patent US20180000085A1, “USE OF PICOLINAMIDE COMPOUNDS WITH FUNGICIDAL ACTIVITY” (DOW AGROSCIENCES LLC, priority 2014, published 2018).

What was measured:
Zymoseptoria tritici = assay: Leaf blotch of wheat (SEPTTR) disease control on wheat seedlings; assay type: in vivo; set-up: key to SEPTTR 1DP, HV activity at 100 ppm (% control rating) / SEPTTR 3DC, HV activity at 100 ppm (% control rating) / SEPTTR disease control, 1DP / SEPTTR disease control, 3DC / SEPTTR 1DP disease control rating, HV activity / SEPTTR 3DC disease control rating, HV activity / SEPTTR 3DC, LV activity at 125.1 g/H (% Control rating) / SEPTTR 1DP, LV activity at 125.1 g/H (% Control rating) / SEPTTR 1DP disease control rating, LV activity at 125.1 g/H / SEPTTR 3DC disease control rating, LV activity at 125.1 g/H / SEPTTR 3DC disease control rating, HV activity at 100 ppm / SEPTTR 1DP disease control rating, HV activity at 100 ppm / HV activity at 100 ppm SEPTTR 3DC (disease control rating) / HV activity at 100 ppm SEPTTR 1DP (disease control rating) / LV activity at 125.1 g/H SEPTTR 1DP (disease control rating) / LV activity at 125.1 g/H SEPTTR 3DC (disease control rating): A: > 80; B: ≤ 80; C: Not Tested; D: No Activity Observed in the Reported Assay; details: for SEPTTR 1DP disease control rating, HV activity / SEPTTR 3DC disease control rating, HV activity: HV application at 100 ppm
Puccinia triticina = assay: Wheat brown rust (PUCCRT) disease control on wheat seedlings; assay type: in vivo; set-up: key to PUCCRT 3DC, HV activity at 100 ppm (% control rating) / PUCCRT disease control, 3DC / PUCCRT 1DP disease control rating, HV activity / PUCCRT 3DC disease control rating, HV activity / PUCCRT 3DC, LV activity at 125.1 g/H (% Control rating) / PUCCRT 1DP, LV activity at 125.1 g/H (% Control rating) / PUCCRT 3DC disease control rating, LV activity at 125.1 g/H / PUCCRT 1DP disease control rating, LV activity at 125.1 g/H / PUCCRT 3DC disease control rating, HV activity at 100 ppm / PUCCRT 1DP disease control rating, HV activity at 100 ppm / HV activity at 100 ppm PUCCRT 3DC (disease control rating) / LV activity at 125.1 g/H PUCCRT 1DP (disease control rating) / LV activity at 125.1 g/H PUCCRT 3DC (disease control rating): A: > 80; B: ≤ 80; C: Not Tested; D: No Activity Observed in the Reported Assay; details: for PUCCRT 1DP disease control rating, HV activity / PUCCRT 3DC disease control rating, HV activity: HV application at 100 ppm
[1] = low volume application, 125.1 g/H, 1 Day Protectant
[2] = low volume application, 125.1 g/H, 3 Day Curative
[3] = 1 Day Protectant, wheat leaf blotch
[4] = 3 Day Curative, wheat leaf blotch
[5] = 1 Day Protectant, wheat brown rust
[6] = 3 Day Curative, wheat brown rust
[7] = low volume application, 125.1 g/H, 1 day protectant
[8] = low volume application, 125.1 g/H, 3 day curative
[9] = high volume application, 100 ppm, 1 day protectant
[10] = high volume application, 100 ppm, 3 day curative

SMILES: CC[C@H](Cc1ccc(F)cc1)[C@@H](Oc1ccccc1)[C@H](C)OC(=O)[C@H](C)NC(=O)c1nccc(OC)c1OCOC(C)=O [Cmpd 471]
- SEPTTR 1DP, LV activity at 125.1 g/H (% Control rating) (Zymoseptoria tritici; [1]): A (> 80)
- SEPTTR 3DC, LV activity at 125.1 g/H (% Control rating) (Zymoseptoria tritici; [2]): A (> 80)
- PUCCRT 1DP, LV activity at 125.1 g/H (% Control rating) (Puccinia triticina; [1]): A (> 80)
- PUCCRT 3DC, LV activity at 125.1 g/H (% Control rating) (Puccinia triticina; [2]): A (> 80)

SMILES: COc1ccnc(C(=O)N[C@@H](C)C(=O)O[C@@H](C)[C@@H](CC(C)C)Oc2ccccc2)c1O [Cmpd 355]
- SEPTTR 1DP disease control rating, HV activity (Zymoseptoria tritici; [3]): A (> 80)
- SEPTTR 3DC disease control rating, HV activity (Zymoseptoria tritici; [4]): A (> 80)
- PUCCRT 1DP disease control rating, HV activity (Puccinia triticina; [5]): A (> 80)
- PUCCRT 3DC disease control rating, HV activity (Puccinia triticina; [6]): A (> 80)

SMILES: CCCC(OC(=O)C(C)NC(=O)c1nccc(OC)c1OCOC(C)=O)C(Oc1ccccc1)C(C)C (stereo not drawn) [Cmpd 1093]
- LV activity at 125.1 g/H SEPTTR 1DP (disease control rating) (Zymoseptoria tritici; low volume application, 125.1 g/H, 1 Day Protectant, wheat leaf blotch): D
- LV activity at 125.1 g/H SEPTTR 3DC (disease control rating) (Zymoseptoria tritici; low volume application, 125.1 g/H, 3 Day Curative, wheat leaf blotch): D
- LV activity at 125.1 g/H PUCCRT 1DP (disease control rating) (Puccinia triticina; low volume application, 125.1 g/H, 1 Day Protectant, wheat brown rust): D
- LV activity at 125.1 g/H PUCCRT 3DC (disease control rating) (Puccinia triticina; low volume application, 125.1 g/H, 3 Day Curative, wheat brown rust): D

SMILES: CC[C@H](OC(=O)[C@H](C)NC(=O)c1nccc(OC)c1OCOC(C)=O)[C@H](Oc1ccccc1)C(C)C [Cmpd 877]
- SEPTTR 1DP disease control rating, LV activity at 125.1 g/H (Zymoseptoria tritici; [7]): B (≤ 80)
- SEPTTR 3DC disease control rating, LV activity at 125.1 g/H (Zymoseptoria tritici; [8]): B (≤ 80)
- PUCCRT 1DP disease control rating, LV activity at 125.1 g/H (Puccinia triticina; [7]): A (> 80)
- PUCCRT 3DC disease control rating, LV activity at 125.1 g/H (Puccinia triticina; [8]): A (> 80)

SMILES: COc1ccnc(C(=O)NC(C)C(=O)OC(C)C(OCC(C)C)c2ccccc2)c1O (stereo not drawn) [Cmpd 820]
- SEPTTR 1DP disease control rating, HV activity at 100 ppm (Zymoseptoria tritici; [9]): A (> 80)
- SEPTTR 3DC disease control rating, HV activity at 100 ppm (Zymoseptoria tritici; [10]): A (> 80)
- PUCCRT 1DP disease control rating, HV activity at 100 ppm (Puccinia triticina; [9]): A (> 80)
- PUCCRT 3DC disease control rating, HV activity at 100 ppm (Puccinia triticina; [10]): A (> 80)

SMILES: CCCOC(CC)C(Oc1ccccc1)C(C)OC(=O)C(NC(=O)c1nccc(OC)c1OC(C)=O)C(C)CC (stereo not drawn) [Cmpd 453]
- SEPTTR 1DP disease control rating, HV activity (Zymoseptoria tritici; [3]): B (≤ 80)
- SEPTTR 3DC disease control rating, HV activity (Zymoseptoria tritici; [4]): B (≤ 80)
- PUCCRT 1DP disease control rating, HV activity (Puccinia triticina; [5]): A (> 80)
- PUCCRT 3DC disease control rating, HV activity (Puccinia triticina; [6]): A (> 80)

SMILES: CCCO[C@@H]([C@H](C)OC(=O)[C@H](C)NC(=O)c1nccc(OC)c1OCOC(=O)COCC)[C@H](CC)Oc1ccccc1 [Cmpd 512, (S)-(2S,3S,4S)-4-phenoxy-3-propoxyhexan-2-yl-2-(3-((2-ethoxyacetoxy)methoxy)-4-methoxypicolinamido)propanoate]
- SEPTTR 1DP, LV activity at 125.1 g/H (% Control rating) (Zymoseptoria tritici; [1]): B (≤ 80)
- SEPTTR 3DC, LV activity at 125.1 g/H (% Control rating) (Zymoseptoria tritici; [2]): A (> 80)
- PUCCRT 1DP, LV activity at 125.1 g/H (% Control rating) (Puccinia triticina; [1]): A (> 80)
- PUCCRT 3DC, LV activity at 125.1 g/H (% Control rating) (Puccinia triticina; [2]): A (> 80)

SMILES: CC[C@H](CCC(C)C)[C@@H](OCC1CC1)[C@H](C)OC(=O)[C@H](C)NC(=O)c1nccc(OC)c1OCOC(C)=O [Cmpd 506]
- SEPTTR 1DP, LV activity at 125.1 g/H (% Control rating) (Zymoseptoria tritici; [1]): B (≤ 80)
- SEPTTR 3DC, LV activity at 125.1 g/H (% Control rating) (Zymoseptoria tritici; [2]): B (≤ 80)
- PUCCRT 1DP, LV activity at 125.1 g/H (% Control rating) (Puccinia triticina; [1]): A (> 80)
- PUCCRT 3DC, LV activity at 125.1 g/H (% Control rating) (Puccinia triticina; [2]): B (≤ 80)

SMILES: COc1ccnc(C(=O)NC(C)C(=O)OC(C)C(OCC2CC2)C2CCCC2)c1OCOC(C)=O (stereo not drawn) [Cmpd 914]
- SEPTTR 1DP disease control rating, LV activity at 125.1 g/H (Zymoseptoria tritici; [7]): B (≤ 80)
- SEPTTR 3DC disease control rating, LV activity at 125.1 g/H (Zymoseptoria tritici; [8]): B (≤ 80)
- PUCCRT 1DP disease control rating, LV activity at 125.1 g/H (Puccinia triticina; [7]): A (> 80)
- PUCCRT 3DC disease control rating, LV activity at 125.1 g/H (Puccinia triticina; [8]): A (> 80)
